Source: patent publication US20050238593A1, “Compositions containing dolichol for dermatological and cosmetic use” (priority 2002, published 2005)

Assays:
[1] = system: isolated hepatocytes treated with carbon tetrachloride; assay: Peroxidative degradation of dolichol and TBARS formation in hepatocytes treated with CCl4; format: cell-based; details: Vitamin E administered
Excerpt: (§1) After irradiation, dolichol undergoes transformations in the most dangerous spectral region (UVB), depending on the dose of radiation applied; it absorbs UV radiation and, if irradiated with UVC rays, instantly acquires an absorption capacity in the UVB region. […] The phenomenon is very weak in the case of irradiation with monochromatic light at 310 nm, more intense with irradiation at 280 nm, and greatest with white light irradiation, namely with the entire emission spectrum of the xenon lamp. […] The photodecomposition products of dolichol have not yet been identified but, by analogy with the findings made with peroxidative degradation of dolichol in isolated hepatocytes treated with carbon tetrachloride, it can be concluded that in biological systems, the degradation cascade leads to the formation of thiobarbituric acid reactive substances (TBARS), which are readily metabolised and detoxified by the body in the event of resorption. […] As regards absorption, it should be borne in mind that dolichol is a normal constituent of all cell membranes, in which it is synthesised and remains until breakdown, without being resorbed into the bloodstream or being transferable to other tissues.

[2] = In vivo photoprotection tests using dolichol; details: dolichol approx. 1 mg/cm2, in vivo
[3] = Study of anti UV-B activity: UV photo-irradiation of dolichol, absorbance change; format: physicochemical
Excerpt: as §1

## Vitamin E
[1]
  degradation of dolichol and formation of TBARS: prevented

## dolichol
[2]
  (photo)sensitising effects: does not have cell-damaging effects or (photo)sensitising effects
  cell-damaging effects: does not have cell-damaging effects
[3]; UV photo-irradiation in an oxygen atmosphere
  photostability under UV photo-irradiation: apparent breakdown, accompanied by disappearance of UVC absorption capacity
[3]; irradiated with UVC rays
  increase in absorbance at 250 nm: more modest increases
[3]; irradiated with UVC rays, in one minute
  increase in absorbance at 320 nm: 430%
[3]; irradiated with UVC rays, in two minutes
  increase in absorbance at 320 nm: 580%
[3]; irradiation at 280 nm
  acquisition of UVB absorption (the phenomenon): more intense
[3]; irradiation with monochromatic light at 310 nm
  acquisition of UVB absorption (the phenomenon): very weak
[3]; white light irradiation, entire emission spectrum of the xenon lamp
  acquisition of UVB absorption (the phenomenon): greatest
